Data reported in patent US20250154169A1, “COMPOUNDS AND METHODS FOR MODULATING SPLICING” (REMIX THERAPEUTICS INC., priority 2021, published 2025).
Where two headings read alike, the source gives them in different places.

Columns and labels:
[1] = system: K562 cells; test: Cell Titer Glo 2.0 cell viability assay, K562; type: cell-based; conditions: Homo sapiens, 72 hours incubation
Procedure: Compounds described herein were screened for toxicity in K562 (human chronic myelogenous leukemia) and SH-SY5Y (human neuroblastoma) cells using a Cell Titer Glo 2.0 assay.
• Promega CellTiter-Glo® 2.0 Cell Viability Assay (cat #G9241) • Corning 384-well TC-treated microplates (cat #3570)
Cells were plated at 500 cells/well (K562 cells) in 45 μL of IMDM supplemented with 10% FBS in a 384-well opaque plate. Wells containing only medium were used as a blank control. Test compounds (e.g., compounds of Formula (I) or (II)) were first serially diluted in DMSO then diluted 1:100 with EIDM+10% FBS. The final concentration of DMSO was 0.1% in each well. The cells were incubated for 72 hours at 37° C. and 5% CO2 before assaying with Cell Titer Glo 2.0 reagent.

[2] = system: MYB mRNA; test: Splicing RT-qPCR assay, MYB canonical (CJ) and alternative (AJ) junction mRNA; type: cell-based, human; conditions: Homo sapiens; for AC50: read-out: MYB AJ (AC50, increase in alternative junction mRNA)
How it was run: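 Read-out is the abundance of canonical-junction versus new alternative-exon-junction mRNA, determined by real-time qPCR after cDNA synthesis and normalized to a housekeeping gene. It is measured in A673 or K562 cells exposed to compounds for 24 h, top dose 10 uM.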

[3] = system: MYB; test: Protein abundance, HiBit-assay system (Promega), MYB; type: cell-based; conditions: Table 6; HiBiT-modified K562 cells, 24 hours
Text: In some embodiments, a compound of Formula (I) or (II) or a pharmaceutically acceptable salt thereof, e.g., as described herein, modulates the expression of a target protein (e.g., HTT or MYB) in a reference cell or sample. In an embodiment, a compound of Formula (I) or (II) or a pharmaceutically acceptable salt thereof, e.g., as described herein, increases the expression of a target protein (e.g., HTT or MYB) in a reference cell or sample. In an embodiment, a compound of Formula (I) or (II) or a pharmaceutically acceptable salt thereof, e.g., as described herein, decreases the expression of a target protein (e.g., HTT or MYB) in a reference cell or sample. The effect of an exemplary compound of Formula (I) or (II) on protein abundance may be measured using a standard assay for measuring protein abundance, such as the HiBit-assay system (Promega). In this assay, percent response for each respective cell line may be as calculated at each compound concentration as follows: % response=100*(S−PC)/(NC−PC). For the normalized response at each concentration, a four-parameter logistical regression may be fit to the data and the response may be interpolated at the 50% value to determine a concentration for protein abundance at 50% (IC50) an untreated control. In an embodiment, a compound of Formula (I) or (II) or a pharmaceutically acceptable salt thereof, e.g., as described herein, has a protein abundance response less than 100 nM. In an embodiment, a compound of Formula (I) or (II) or a pharmaceutically acceptable salt thereof, e.g., as described herein, has a protein abundance response between 100-1000 nM. In an embodiment, a compound of Formula (I) or (II) or a pharmaceutically acceptable salt thereof, e.g., as described herein, has a protein abundance response greater than 1000 nM. In an embodiment, a compound of Formula (I) or (II) or a pharmaceutically acceptable salt thereof, e.g., as described herein, has a protein abundance response greater than 10 uM. In an embodiment, a compound of Formula (I) or (II) or a pharmaceutically acceptable salt thereof, e.g., as described herein, modulates the protein abundance of a target protein by about 1%, 5%, 10%, 15%, 20%, 25%, 30%, 35%, 40%, 45%, 50%, 55%, 60%, 65%, 70%, 75%, 80%, 85%, 90%, 95%, 99% or more, e.g., compared with a reference compound.

[4] = 24 h, A673 or K562 cells, 24 hours compound treatment, RT-qPCR
[5] = 24 h, A673 or K562 cells, 24 hours compound treatment, RT-qPCR, read-out: MYB CJ (IC50, decrease in canonical junction mRNA)
[6] = Tables 4A/4B, canonical junction qPCR panel, read-out: MYB (IC50, decrease in CJ mRNA, gene panel)

Row | GI50 [1] | IC50 [2, 5] | IC50 [3] | IC50 [2, 6] | Structure (SMILES) | AC50 [2, 4] | AC50 ([2]; A673 or K562 cells, 24 hours compound treatment, RT-qPCR) | IC50 ([2]; A673 or K562 cells, 24 hours compound treatment, RT-qPCR, read-out: MYB CJ (IC50, decrease in canonical junction mRNA))
1 | < 100 nM | 100 to 1000 nM | < 100 nM | – | CCn1cc2c(N3CCC(N[C@H]4C[C@H](O)C4)CC3)ccc(C(=O)Nc3cc(F)c4nc(C)cn4c3)c2n1 [Compound 560, 2-ethyl-N-{8-fluoro-2-methylimidazo[1,2-a]pyridin-6-yl}-4-(4-{[(1r,3r)-3-hydroxycyclobutyl]amino}piperidin-1-yl) indazole-7-carboxamide] | 100 to 1000 nM | – | –
2 | < 100 nM | – | < 100 nM | 100 to 1000 nM | CCNC1CCN(c2ccc(C(=O)Nc3cc(F)c4nc(C)cn4c3)c3oc(C)cc23)CC1 [Compound 196] | – | – | –
3 | 100 to 1000 nM | 1000 to 10000 nM | 1000 to 10000 nM | – | Cc1cn2cc(NC(=O)c3ccc(N4CC[C@@H](NC56CC(C5)C6)C4)c4cn(C)nc34)cc(F)c2n1 [Compound 568, 4-[(3R)-3-{bicyclo[1.1.1]pentan-1-ylamino}pyrrolidin-1-yl]-N-{8-fluoro-2-methylimidazo[1,2-a]pyridin-6-yl}-2-methylindazole-7-carboxamide] | 1000 to 10000 nM | – | –
4 | < 100 nM | – | < 100 nM | < 100 nM | CC1=CC2C(N3CCC(N(C)C)CC3)=CC=C(C(=O)Nc3cc(F)c4nc(C)cn4c3)C2O1 (stereo not drawn) [Compound 198] | – | – | –
5 | 1000 to 10000 nM | > 10000 nM | 1000 to 10000 nM | – | CCn1cc2c(N3CCNCC3)ccc(C(=O)Nc3cc(F)c4nc(C)c(F)n4c3)c2n1 [Compound 565, N-{3,8-difluoro-2-methylimidazo[1,2-a]pyridin-6-yl}-2-ethyl-4-(piperazin-1-yl) indazole-7-carboxamide; trifluoroacetic acid] | > 10000 nM | – | –
6 | 100 to 1000 nM | > 10000 nM | 1000 to 10000 nM | – | CCn1cc2c(N3CCNCC3)ccc(C(=O)Nc3cc(F)c4ncccc4c3)c2n1 [Compound 575] | > 10000 nM | – | –
7 | 100 to 1000 nM | < 100 nM | < 100 nM | – | Cc1cn2cc(NC(=O)c3c(F)cc(N4CC[C@@H](NC5CC5)C4)c4cn(C)nc34)cc(F)c2n1 [Compound 571, 4-[(3R)-3-(cyclopropylamino)pyrrolidin-1-yl]-6-fluoro-N-{8-fluoro-2-methylimidazo[1,2-a]pyridin-6-yl}-2-methylindazole-7-carboxamide] | < 100 nM | – | –
8 | 100 to 1000 nM | < 100 nM | < 100 nM | < 100 nM | Cc1cn2cc(NC(=O)c3ccc(N4CCNC(C)C4)c4cc(C)oc34)cc(F)c2n1 (stereo not drawn) [Compound 190] | < 100 nM | – | –
9 | 100 to 1000 nM | 100 to 1000 nM | 100 to 1000 nM | – | Cc1cn2cc(NC(=O)c3ccc(N4CCC(C)(NC(C)C)C4)c4cn(C)nc34)cc(F)c2n1 (stereo not drawn) [Compound 574] | 100 to 1000 nM | – | –

Row | Structure (SMILES) | GI50 [1] | IC50 [2, 5] | IC50 [3] | IC50 [2, 6] | AC50 [2, 4] | AC50 ([2]; A673 or K562 cells, 24 hours compound treatment, RT-qPCR) | IC50 ([2]; A673 or K562 cells, 24 hours compound treatment, RT-qPCR, read-out: MYB CJ (IC50, decrease in canonical junction mRNA))
10 | Cc1cn2cc(NC(=O)c3ccc(N4C5CNCC54)c4cn(C)nc34)cc(F)c2n1 (stereo not drawn) [Compound 564, 4-{3,6-diazabicyclo[3.1.0]hexan-6-yl}-N-{8-fluoro-2-methylimidazo[1,2-a]pyridin-6-yl}-2-methylindazole-7-carboxamide] | 100 to 1000 nM | – | 100 to 1000 nM | – | – | < 100 nM | < 100 nM
